Experimental data taken from US20140335115A1 (priority 2013, published 2014).

Assays:
Assay type in all cases: cell-based
monkeypoxvirus = tested on: monkeypoxvirus
vaccinia virus = tested on: vaccinia virus
cowpoxvirus = tested on: cowpoxvirus

Measured: prevention of spread of virus to Jurkat T cells

O=C(NN1C(=O)[C@@H]2[C@@H]3C=C[C@@H]([C@H]4C[C@@H]34)[C@@H]2C1=O)c1ccc(C(F)(F)F)cc1 [ST246]
~90%: monkeypoxvirus | vaccinia virus | cowpoxvirus
